Measurements as given in patent US11897880B2, “7,8-dihydrobenzo[e]pyrido[3,4-c]azocine-2,5(3H,6H)-dione derivatives useful as a factor XIa inhibitors” (Janssen Pharmaceutica NV, priority 2021, dated 2024).
Where two headings read alike, the source gives them in different places.

Legend:
[1] = target: human plasma kallikrein (Homo sapiens, UniProt P03952); experiment: Kallikrein inhibition assay utilizing a quenched AMC peptide substrate (FLINT); assay type: biochemical; settings: 30 min preincubation, 50 μM Z-Gly-Pro-Arg-AMC, 2 nM kallikrein
Chain of human plasma kallikrein (P03952 391-638 limits assumed): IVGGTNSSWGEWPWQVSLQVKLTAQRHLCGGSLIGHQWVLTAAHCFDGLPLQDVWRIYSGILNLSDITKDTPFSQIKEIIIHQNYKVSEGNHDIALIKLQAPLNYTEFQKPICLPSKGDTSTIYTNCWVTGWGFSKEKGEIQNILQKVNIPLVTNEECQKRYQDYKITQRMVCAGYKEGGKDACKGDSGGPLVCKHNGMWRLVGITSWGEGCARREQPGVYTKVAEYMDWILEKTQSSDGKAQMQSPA
Chain of human plasma kallikrein (P03952 20-390 partner limits assumed): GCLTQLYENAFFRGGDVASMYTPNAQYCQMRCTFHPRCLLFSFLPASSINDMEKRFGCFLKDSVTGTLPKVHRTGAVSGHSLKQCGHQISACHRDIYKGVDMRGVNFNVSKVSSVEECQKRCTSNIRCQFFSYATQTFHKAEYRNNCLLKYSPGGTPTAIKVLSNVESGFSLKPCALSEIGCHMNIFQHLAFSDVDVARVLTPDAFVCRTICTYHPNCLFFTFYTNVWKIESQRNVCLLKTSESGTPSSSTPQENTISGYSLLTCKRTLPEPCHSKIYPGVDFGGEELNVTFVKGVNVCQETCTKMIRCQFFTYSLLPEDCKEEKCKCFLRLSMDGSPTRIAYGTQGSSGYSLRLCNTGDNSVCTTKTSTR
Source text: Biological Example 2: Kallikrein Inhibition Assay Utilizing a Quenched AMC Peptide Substrate
A fluorescence intensity (FLINT) based assay was used to monitor inhibition of human plasma kallikrein. The peptide substrate, Z-Gly-Pro-Arg-AMC (Purchased from Bachem; Catalog #1-1150) was chosen based on its relatively low KM for kallikrein which enables running the assay at lower substrate concentrations to control background fluorescence.
The Kallikrein FLINT assay was used with the following Z-Gly-Pro-Arg-AMC assay buffer: 50 mM Tris, pH 7.5, 100 mM NaCl, 5 mM CaCl2), 0.1 mg/mL BSA, 0.03% CHAPS. Assay buffer was prepared by mixing all ingredients fresh. 2× Z-Gly-Pro-Arg-AMC peptide substrate was prepared by diluting 10 mM stock into 1× assay buffer for a 100 μM working concentration (50 μM final concentration). The 2× kallikrein stock solution was prepared by diluting 14.76 μM stock in 1× assay buffer for a 4 nM working stock solution (2 nM final concentration).
Test compound(s) were run in an 11-point, 3-fold serial dilution with a final top compound concentration of 1 μM. Final DMSO in assay was 2%. Plasma kallikrein was pre-incubated for 30-minute with compound and then 50 μM substrate was added to initiate the reaction. The assay was run with kinetic (KIN) reads at 5 min intervals over 30 minutes. The time course was linear using 2 nM kallikrein greater than 30 minutes. More specifically, the assay was run as follows: • 100 nL of 0.1 mM test compound was dispensed into black 384-well non-binding Greiner BioOne 784900 plate for 1 μM final concentration; • 5 μL of 1× assay buffer was dispensed to columns 24 (low control) and 5 μL 2× human kallikrein enzyme solution was dispensed to columns 1-23 (column 23 high control); • the plate was centrifuged with a “cover” plate at 500 rpm for 1 min • the plate was pre-incubated for 30 minutes at room temperature with plate covered; • 5 μL of 2× Z-Gly-Pro-Arg-AMC peptide substrate was dispensed into the entire plate, columns 1-24; • the plate was centrifuged with a “cover” plate at 500 rpm for 1 min; the plate was read monitoring fluorescence intensity on the BMG PHERAStar at room temperature, using fluorescence module 340 nm/440 nm.
Percent inhibition (IC50) curves were generated per compound tested, and data was analyzed using a 4-parameter logistic fit using GeneData Screener. The relative fluorescence unit (RFU) values were normalized to percent inhibition using the following equation: % inhibition=((HC−LC)−(compound−LC)/(HC−LC))*100 where LC—low control=mean signal of human kallikrein enzyme or 100% inhibition of human kallikrein enzyme; HC—high control=mean signal of […]+Z-Gly-Pro-Arg-AMC peptide substrate with DMSO only.
An 11-point dose response curve for the test compound(s) was generated using GENDATA to determine IC50 value based on the following equation: Y=Bottom+(Top−Bottom)/(1+10^((log IC50−X)*HillSlope)) • where Y is the % inhibition in the presence of X inhibitor concentration, Top=high control=mean signal of human kallikrein enzyme+Z-Gly-Pro-Arg-AMC peptide substrate with DMSO only; Bottom=low control−mean signal of no human kallikrein enzyme or 100% inhibition of human kallikrein enzyme; HillSlope—Hill coefficient; and IC50=concentration of compound with 50% inhibition in relation to top/high control.
(§1) Representative compounds of formula (I) of the present invention were tested according to the procedure described in Biological Example 1 and Biological Example 2 above, with results as listed in Table 3, below.

[2] = target: Factor XIa (Homo sapiens, UniProt P03951); experiment: Factor XIa inhibition assay utilizing a fluorophore-quencher pair peptide substrate (FLINT); assay type: biochemical; settings: for IC50: read-out: FXIa IC50; for Ki: read-out: FXIa Ki
Chain of Factor XIa (P03951 388-625 limits assumed): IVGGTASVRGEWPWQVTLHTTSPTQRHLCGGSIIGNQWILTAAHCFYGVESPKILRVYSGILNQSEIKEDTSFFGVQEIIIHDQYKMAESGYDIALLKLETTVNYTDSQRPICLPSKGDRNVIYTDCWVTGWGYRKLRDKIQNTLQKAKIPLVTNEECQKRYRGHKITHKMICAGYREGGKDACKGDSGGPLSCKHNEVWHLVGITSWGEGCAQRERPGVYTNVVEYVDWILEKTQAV
Chain of Factor XIa (P03951 19-387 partner limits assumed): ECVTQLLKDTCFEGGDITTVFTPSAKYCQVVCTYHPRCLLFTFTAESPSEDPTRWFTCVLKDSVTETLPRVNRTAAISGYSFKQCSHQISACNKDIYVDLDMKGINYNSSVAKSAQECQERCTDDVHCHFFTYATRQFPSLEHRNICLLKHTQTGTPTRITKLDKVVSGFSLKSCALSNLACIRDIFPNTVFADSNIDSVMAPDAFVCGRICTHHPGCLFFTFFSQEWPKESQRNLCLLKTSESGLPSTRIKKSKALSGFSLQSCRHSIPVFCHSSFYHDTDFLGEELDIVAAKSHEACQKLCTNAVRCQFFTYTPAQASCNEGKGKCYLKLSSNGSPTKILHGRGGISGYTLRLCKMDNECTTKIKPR
Source text: Biological Example 1: Factor XIa Inhibition Assay Utilizing a Fluorophore-Quencher Pair Peptide Substrate
A fluorescence intensity (FLINT) based assay was used to monitor inhibition of Factor XIa. The peptide substrate, 5Fam-KLTRAETV-K5Tamra (purchased from New England Peptide) was chosen based on the FXI sequence. Conversion of zymogen FXI to its activated form, FXIa, occurs by proteolytic cleavage by […] at two sites, Arg146 and Arg180. The custom peptide used in this assay was based on the Arg146 cleavage site of FXI. The peptide substrate was designed with a fluorophore-quencher pair, where the fluorescence is quenched until FXIa cleaves the 8-mer peptide after the Arg residue.
The Factor XIa FLINT assay was used with the following 5Fam-KLTRAETV-K5Tamra assay buffer: 50 mM Tris, pH 7.5, 100 mM NaCl, 5 mM CaCl2), 0.1 mg/mL BSA, 0.03% CHAPS. Assay buffer was prepared by mixing all ingredients fresh. 5Fam-KLTRAETV-K5Tamra peptide substrate was first prepared at 10 mM in 100% DMSO, then diluted to 3 mM in 100% DMSO. Assay buffer was then added directly to the 3 mM stock of substrate to prepare the 30 μM 2× working concentration (15 μM final concentration). The 2× Factor XIa stock solution was prepared by diluting 6.562 μM stock in 1× assay buffer for a […].
Test compound(s) were run in an 11-point, 3-fold serial dilution with a final top compound concentration of 100 nM. Final DMSO in assay was 2%. FXIa was preincubated with compound for 30-minutes and then substrate was added to initiate the reaction. The assay was run with kinetic (KIN) reads at 5 min intervals over 30 minutes. The time course was linear using […] FXIa greater than 30 minutes. More specifically, the assay was run as follows: • 100 nL of 0.01 mM test compound was dispensed into black 384-well non-binding Greiner BioOne 784900 plate for 0.1 μM final concentration; • 5 μL of 1× assay buffer was dispensed to column 24 (low control) and 5 μL 2× Factor XIa solution was dispensed to columns 1-23 (column 23 high control); • the plate was centrifuged with a “cover” plate at 500 rpm for 1 min • the plate was pre-incubated for 30 minutes at room temperature with plate covered; • 5 μL of 2×5Fam-KLTRAETV-K5Tamra peptide substrate was dispensed into the entire plate, columns 1-24; • the plate was centrifuged with a “cover” plate at 500 rpm for 1 min; • the plate was read monitoring fluorescence intensity on the BMG PHERAStar at room temperature, using fluorescence module 485 nm/520 nm.
Percent inhibition (IC50) curves were generated per compound tested, and data was analyzed using a 4-parameter logistic fit using GeneData Screener. The relative fluorescence unit (RFU) values were normalized to percent inhibition using the following equation: % inhibition=((HC−LC)−(compound−LC)/(HC−LC))*100
where LC−low control=mean signal of no Factor XIa or 100% inhibition of Factor XIa; HC−high control=mean signal of Factor XIa+5Fam-KLTRAETV-K5Tamra peptide substrate with DMSO only.
An 11-point dose response curve for the test compound(s) was generated using GENDATA to determine IC50 value based on the following equation: Y=Bottom+(Top−Bottom)/(1+10^((log IC50−X)*HillSlope))
where Y is the % inhibition in the presence of X inhibitor concentration, Top=high control=mean signal of Factor XIa+5Fam-KLTRAETV-K5Tamra peptide substrate with DMSO only; Bottom=low control−mean signal of no Factor XIa or 100% inhibition of Factor XIa; HillSlope−Hill coefficient; and IC50=concentration of compound with 50% inhibition in relation to top/high control.
as §1

[3] = 30 min preincubation, 5Fam-KLTRAETV-K5Tamra substrate 15 μM final, kinetic reads
[4] = cells that print μM themselves in the nM column
[5] = cells that print μM themselves in the nM column, same assay conditions

| IC50 [1] | IC50 [2, 3] | Ki [2] | Ki [2, 4] | IC50 [2, 5] | SMILES |
| --- | --- | --- | --- | --- | --- |
| > 10 µM | 0.882 µM | 0.441 µM | – | – | O=C1NC2(CC2)Cc2ccc(Cl)c(F)c2-c2cc(=O)n(C(CC3CC3)c3ncc(-c4cc[n+]([O-])cc4)[nH]3)cc21 (single isomer, unassigned) [Compound 56, (S*)-4-(2-(1-(11-chloro-12-fluoro-2,5-dioxo-2,5,6,8-tetrahydro-3H-spiro[benzo[e]pyrido[3,4-c]azocine-7,1′-cyclopropan]-3-yl)-2-cyclopropylethyl)-1H-imidazol-5-yl)pyridine 1-oxide] |
| > 10 µM | – | – | 4.84 µM | 9.69 µM | O=C1NC2(CC2)Cc2ccc(Cl)c(F)c2-c2cc(=O)n(C(CC3CC3)c3ncc(-c4cc[n+]([O-])cc4)[nH]3)cc21 (single isomer, unassigned) [Compound 57, (R*)-4-(2-(1-(11-chloro-12-fluoro-2,5-dioxo-2,5,6,8-tetrahydro-3H-spiro[benzo[e]pyrido[3,4-c]azocine-7,1′-cyclopropan]-3-yl)-2-cyclopropylethyl)-1H-imidazol-5-yl)pyridine 1-oxide] |
| > 10 µM | – | – | > 5 µM | > 10 µM | Cn1ncc(-c2cnc(C(CC3CC3)n3cc4c(cc3=O)-c3c(ccc(Cl)c3F)CC3(CC3)NC4=O)[nH]2)cc1=O (single isomer, unassigned) [Compound 58, (R*)-11-chloro-3-(2-cyclopropyl-1-(5-(1-methyl-6-oxo-1,6-dihydropyridazin-4-yl)-1H-imidazol-2-yl)ethyl)-12-fluoro-3H-spiro[benzo[e]pyrido[3,4-c]azocine-7,1′-cyclopropane]-2,5(6H,8H)-dione] |
| > 10 µM | – | – | 2.19 µM | 4.39 µM | Cn1ncc(-c2cnc(C(CC3CC3)n3cc4c(cc3=O)-c3c(ccc(Cl)c3F)CC3(CC3)NC4=O)[nH]2)cc1=O (single isomer, unassigned) [Compound 59, (S*)-11-chloro-3-(2-cyclopropyl-1-(5-(1-methyl-6-oxo-1,6-dihydropyridazin-4-yl)-1H-imidazol-2-yl)ethyl)-12-fluoro-3H-spiro[benzo[e]pyrido[3,4-c]azocine-7,1′-cyclopropane]-2,5(6H,8H)-dione] |
| > 10 µM | – | – | ~4.81 µM | ~9.61 µM | Cn1cc(-c2cnc(C(CC3CC3)n3cc4c(cc3=O)-c3c(ccc(Cl)c3F)CC3(CC3)NC4=O)[nH]2)ccc1=O (single isomer, unassigned) [Compound 60, (R*)-11-chloro-3-(2-cyclopropyl-1-(5-(1-methyl-6-oxo-1,6-dihydropyridin-3-yl)-1H-imidazol-2-yl)ethyl)-12-fluoro-3H-spiro[benzo[e]pyrido[3,4-c]azocine-7,1′-cyclopropane]-2,5(6H,8H)-dione] |
| 5.37 µM | 0.0486 µM | 0.0243 µM | – | – | COC(=O)Nc1ccc(-c2cnc(C(CC3CC3)n3cc4c(cc3=O)-c3c(ccc(Cl)c3F)CC3(CC3)NC4=O)[nH]2)cc1 (single isomer, unassigned) [Compound 62, Methyl (R*)-(4-(2-(1-(11-chloro-12-fluoro-2,5-dioxo-2,5,6,8-tetrahydro-3H-spiro[benzo[e]pyrido[3,4-c]azocine-7,1′-cyclopropan]-3-yl)-2-cyclopropylethyl)-1H-imidazol-5-yl)phenyl)carbamate] |
| > 10 µM | – | 0.578 µM | – | 1.16 µM | Cn1cc(-c2cnc(C(CC3CC3)n3cc4c(cc3=O)-c3c(ccc(Cl)c3F)CC3(CC3)NC4=O)[nH]2)ccc1=O (single isomer, unassigned) [Compound 63, (S*)-11-chloro-3-(2-cyclopropyl-1-(5-(1-methyl-6-oxo-1,6-dihydropyridin-3-yl)-1H-imidazol-2-yl)ethyl)-12-fluoro-3H-spiro[benzo[e]pyrido[3,4-c]azocine-7,1′-cyclopropan]-2,5(6H,8H)-dione] |
| > 10 µM | – | 0.564 µM | – | 1.13 µM | O=C1NC2(CC2)Cc2ccc(Cl)c(F)c2-c2cc(=O)n(C(CC3CC3)c3ncc(-c4ccc(F)cc4)[nH]3)cc21 (single isomer, unassigned) [Compound 64, (R*)-11-chloro-3-(2-cyclopropyl-1-(5-(4-fluorophenyl)-1H-imidazol-2-yl)ethyl)-12-fluoro-3H-spiro[benzo[e]pyrido[3,4-c]azocine-7,1′-cyclopropane]-2,5(6H,8H)-dione] |
| 5.72 µM | 0.102 µM | 0.0508 µM | – | – | O=C1NC2(CC2)Cc2ccc(Cl)c(F)c2-c2cc(=O)n(C(CC3CC3)c3ncc(-c4ccc(F)cc4)[nH]3)cc21 (single isomer, unassigned) [Compound 65, (S*)-11-chloro-3-(2-cyclopropyl-1-(5-(4-fluorophenyl)-1H-imidazol-2-yl)ethyl)-12-fluoro-3H-spiro[benzo[e]pyrido[3,4-c]azocine-7,1′-cyclopropane]-2,5(6H,8H)-dione] |
